Test: xn = mol fraction of the nth substance listed

CCNCCO + O
viscosity [mPa·s]
Conditions	293.15 K	298.15 K	303.15 K	308.15 K	313.15 K	318.15 K	323.15 K
100 kPa, x2 = 0.55	32.2	–	18.1	–	10.9	–	6.98
101 kPa, x1 = 0.0499	–	–	1.968	–	–	–	–
101 kPa, x1 = 0.0998	–	–	3.824	–	–	–	–
101 kPa, x1 = 0.1506	–	–	6.179	–	–	–	–
101 kPa, x1 = 0.2011	–	–	8.652	–	–	–	–
101 kPa, x1 = 0.2982	–	–	13.25	–	–	–	–
101 kPa, x1 = 0.4029	–	–	17.07	–	–	–	–
101 kPa, x1 = 0.4458	–	–	17.98	–	–	–	–
101 kPa, x1 = 0.5051	–	–	18.79	–	–	–	–
101.3 kPa, x1 = 0.0481	2.723	–	1.934	–	1.422	–	1.093
101.3 kPa, x1 = 0.0797	4.52	3.7	3.05	2.56	2.18	1.86	1.62
101.3 kPa, x1 = 0.1001	7.45	–	4.82	–	2.74	–	2
101.3 kPa, x1 = 0.119	7.315	–	4.617	–	3.122	–	2.225
101.3 kPa, x1 = 0.168	11.94	9.26	7.3	5.85	4.78	3.96	3.34
101.3 kPa, x1 = 0.2	–	–	9.31	–	5.5	–	3.68
101.3 kPa, x1 = 0.233	17.55	–	10.33	–	6.544	–	4.39
101.3 kPa, x1 = 0.3001	23.16	–	13.36	–	8.19	–	5.2
101.3 kPa, x1 = 0.4002	28.88	–	16.31	–	10.32	–	6.29
101.3 kPa, x1 = 0.447	31.75	–	17.94	–	10.85	–	6.977
101.3 kPa, x1 = 0.5	–	–	17.86	–	11.49	–	6.88
101.3 kPa, x1 = 0.6001	31.42	–	17.96	–	11.66	–	7.05
101.3 kPa, x1 = 0.7	28.21	–	16.61	–	10.91	–	6.74
101.3 kPa, x1 = 0.8002	23.04	–	14.28	–	9.46	–	6.18
101.3 kPa, x1 = 0.9001	17.51	–	11.45	–	7.8	–	5.19
101.3 kPa, x2 = 0.3547	30.01	–	–	–	10.6	–	6.882
101.33 kPa, x1 = 0.019	1.537	1.336	1.172	1.038	0.927	0.833	0.755
101.33 kPa, x1 = 0.0419	2.508	2.112	1.804	1.559	1.362	1.201	1.068
101.33 kPa, x1 = 0.0686	3.671	3.152	2.613	2.222	1.896	1.643	1.438
101.33 kPa, x1 = 0.1	5.847	4.671	3.798	3.14	–	2.241	1.934

CNC=O + O
viscosity [mPa·s]
Conditions	298 K	298.15 K	303 K	303.15 K	308.15 K	313.15 K	318.15 K	323.15 K
101 kPa, x1 = 0.0328	1.05	–	0.9456	–	–	–	–	–
101 kPa, x1 = 0.1	–	1.384	–	1.219	1.083	0.9687	0.871	–
101 kPa, x1 = 0.1158	1.305	–	1.176	–	–	–	–	–
101 kPa, x1 = 0.1999	–	1.754	–	1.539	1.363	1.215	1.084	–
101 kPa, x1 = 0.2341	1.573	–	1.425	–	–	–	–	–
101 kPa, x1 = 0.3002	–	1.967	–	1.728	1.532	1.366	1.222	–
101 kPa, x1 = 0.4001	–	–	–	1.805	1.608	1.44	1.3	–
101 kPa, x1 = 0.4163	–	–	1.625	–	–	–	–	–
101 kPa, x1 = 0.4998	–	2.031	–	1.818	1.636	1.472	1.331	–
101 kPa, x1 = 0.6006	–	1.975	–	1.772	1.59	1.437	1.304	–
101 kPa, x1 = 0.6995	–	1.902	–	1.712	1.546	1.401	1.273	–
101 kPa, x1 = 0.7334	1.658	–	1.5	–	–	–	–	–
101 kPa, x1 = 0.8	–	1.836	–	1.658	1.502	1.364	1.243	–
101 kPa, x1 = 0.8997	–	1.781	–	1.609	1.459	1.327	1.21	–
101.33 kPa, x1 = 0.0969	–	–	–	1.216	1.086	0.974	0.8818	0.8012
101.33 kPa, x1 = 0.2015	–	–	–	1.529	1.36	1.219	1.098	0.9948
101.33 kPa, x1 = 0.2996	–	–	–	1.718	1.531	1.373	1.24	1.124
101.33 kPa, x1 = 0.4005	–	–	–	1.792	1.603	1.445	1.308	1.187
101.33 kPa, x1 = 0.4994	–	–	–	1.789	1.61	1.458	1.327	1.211
101.33 kPa, x1 = 0.5995	–	–	–	1.753	1.576	1.443	1.32	1.21
101.33 kPa, x1 = 0.6999	–	–	–	1.693	1.542	1.412	1.296	1.193
101.33 kPa, x1 = 0.7999	–	–	–	1.649	1.509	1.388	1.279	1.182
101.33 kPa, x1 = 0.9001	–	–	–	1.61	1.478	1.361	1.261	1.164

— the CheMixHub viscosity set
